US20080188837A1, “Local Delivery of Drugs or Substances Using Electronic Permeability Increase” (priority 2004, published 2008)

Tests used:
Assay type in all cases: in vitro ADME, Wistar rat
[1] = tested on: distal ileum tissue samples; assay: In vitro permeation of octreotide via distal ileum tissue in diffusion chamber 500 under LITV pulses (FIG. 36); conditions: 18 Hz, 3 mA, 1 millisecond, at 7 minutes, vs non-stimulated control
Experimental: (§1) The samples were analyzed for their content of octreotide by HPLC-UV 205 nm spectroscopy (Hewlett-Packard 1100). […] A 100×3 mm C18 column was used.

[2] = tested on: proximal ileum tissue samples; assay: In vitro permeation of octreotide via proximal ileum tissue in diffusion chamber 500 under LITV pulses (FIG. 36); conditions: 18 Hz, 3 mA, 1 millisecond, at 7 minutes, vs non-stimulated control
Experimental: as §1

[3] = tested on: jejunal tissue samples (upper jejunum); assay: In vitro permeation of octreotide via jejunal tissue in diffusion chamber 500 under LITV pulses (FIGS. 27-36); conditions: for octreotide permeation vs control group: FIG. 29; for permeation efficiency, effect of electrode material: FIG. 34
Experimental: as §1

[4] = tested on: upper jejunum tissue segments; assay: In vitro permeation of octreotide through rat upper jejunum in a diffusion chamber, with and without LITV pulses (FIG. 24); conditions: 12 Hz monophasic pulses, 1 millisecond, 3 mA, vs control chamber without electrical stimulation, 1 mg/ml donor, 90-minute period
Excerpt: The distance between electrode centers was 10 mm.

SMILES: C[C@@H](O)[C@@H]1NC(=O)[C@H](CCCCN)NC(=O)[C@@H](Cc2c[nH]c3ccccc23)NC(=O)[C@H](Cc2ccccc2)NC(=O)[C@@H](NC(=O)[C@H](N)Cc2ccccc2)CSSC[C@@H](C(=O)N[C@H](CO)[C@@H](C)O)NC1=O [octreotide, octreotide acetate]
- permeation efficiency, effect of pulse application by intestinal region [1]: positive but less pronounced effect
- permeation efficiency, effect of pulse application by intestinal region [2]: increased permeation efficiency
- permeation efficiency, effect of pulse cycle ([3]; 1 pulse per cycle among 1, 2, 3 pulses per cycle, 18 Hz, 3 mA, 1 millisecond, FIG. 31): greatest permeation efficiency
- transport enhancement ratio (ER), effect of pulse frequency ([3]; 18 Hz among 5, 12, 18, 24, 30, 60 Hz, 1 millisecond, 3 mA, at 30 minutes, FIG. 28): greatest enhancement ratio
- permeation efficiency, effect of cessation of pulse application ([3]; continuous application of pulses vs cessation after 10 minutes (n=1), 18 Hz, 3 mA, 1 millisecond, normalized to control group of FIG. 27, FIG. 35): substantially greater permeation efficiency
- magnitude of permeation efficiency, effect of electrode distance from jejunal tissue ([3]; electrode distance 0.5 mm (n=2) vs 3 mm (n=6), 18 Hz, 3 mA, 1 millisecond, at 15 minutes, FIG. 32): greater at 0.5 mm than at 3 mm
- permeation efficiency, effect of pulse application by intestinal region ([3]; jejunal tissue, 18 Hz, 3 mA, 1 millisecond, at 7 minutes, vs non-stimulated control, FIG. 36): greatest effect of pulse application
- permeation efficiency, trend with number of pulses per cycle ([3]; number of pulses per cycle increased from 1 to 2 to 3 (5-millisecond intervals), 18 Hz, 3 mA, 1 millisecond, FIG. 31): the permeation efficiency decreased
- transport enhancement ratio (ER), effect of pulse duration ([3]; pulse duration 1 millisecond among 0.2, 0.5, 1, 3 milliseconds, 18 Hz, 3 mA, at 15 minutes, FIG. 30): greatest enhancement ratio
- octreotide permeation (permeation efficiency) ([3]; pulses 1 millisecond, 18 Hz, 3 mA (n=6) vs non-stimulated control group (n=3), FIG. 27): substantially enhanced octreotide permeation
- octreotide permeation vs control group ([3]; pulses at 5 Hz (n=1), 1 millisecond, 3 mA): did not yield a higher octreotide permeation
- octreotide permeation vs control group ([3]; pulses at 60 Hz (n=1), 1 millisecond, 3 mA): did not yield a higher octreotide permeation
- permeation efficiency, effect of electrode material ([3]; silver chloride (AgCl) electrodes (n=2), 18 Hz, 3 mA, 1 millisecond): did not increase permeation efficiency
- permeation efficiency, effect of electrode material ([3]; stainless steel (SS316L) electrodes (n=6), 18 Hz, 3 mA, 1 millisecond): substantially increased permeation efficiency
- permeation efficiency, effect of electrode material ([3]; titanium nitride (TN) electrodes (n=3), 18 Hz, 3 mA, 1 millisecond): did not increase permeation efficiency
- permeation efficiency, effect of electrode insulation ([3]; without divider 528, electrodes not insulated from each other (n=1), 18 Hz, 3 mA, 1 millisecond, FIG. 33): did not increase permeation efficiency
- octreotide permeation into acceptor cell [4]: substantially greater increase in octreotide permeation
